Results on two compounds are retold here after PMC4946998 (Journal of cellular physiology, 2016).

Like-named read-outs stand apart in the source and are kept apart here.

The target in one data set is MMP-1 (Homo sapiens, UniProt P03956). The following applies: read-out: IC50 MMP-1; average of three determinations, SD <10%.
The target in a further data set is MMP-2 (Homo sapiens, UniProt P08253). The following applies: read-out: IC50 MMP-2; average of three determinations, SD <10%.
The target in another data set is MMP-3 (Homo sapiens, UniProt P08254). The following applies: read-out: IC50 MMP-3; average of three determinations, SD <10%.
The next data set concerns the target MMP-8 (Homo sapiens, UniProt P22894). The note with it: read-out: IC50 MMP-8; average of three determinations, SD <10%.
The next data set has as its target MMP-9 (Homo sapiens, UniProt P14780). The following applies: read-out: IC50 MMP-9; average of three determinations, SD <10%.
Another data set deals with MMP-14 cd (Homo sapiens, UniProt P50281). The note with it: read-out: IC50 MMP-14; average of three determinations, SD <10%.
In data set [1] the test system is corneal epithelial defect. The following applies: CM; for wound healing: day 5.
The test system of data set [2] is corneal opacity. The following applies: CM.
The subject of data set [3] is IL-1β, IL-6, CXCL1, MMPs -1,-3,-9,-13 mRNA transcripts.
Data set [4] concerns inflammatory cytokines and MMPs in the cornea. The following applies: naïve WT mice, CAM12 IP QD for 5 days versus PBS; data not shown.
The subject of data set [5] is MMP-1 immunoreactivity; Gr-1+ cells. The following applies: WT mice, CM, topical Dex; not in MMP-8KO mice.
For data set [6], the system named is corneal opacity. The note with it: WT, CM, 2D post injury; ref Bian et al., 2016; cited from earlier work.

Chain of MMP-8 (P22894 101-467, species assumed): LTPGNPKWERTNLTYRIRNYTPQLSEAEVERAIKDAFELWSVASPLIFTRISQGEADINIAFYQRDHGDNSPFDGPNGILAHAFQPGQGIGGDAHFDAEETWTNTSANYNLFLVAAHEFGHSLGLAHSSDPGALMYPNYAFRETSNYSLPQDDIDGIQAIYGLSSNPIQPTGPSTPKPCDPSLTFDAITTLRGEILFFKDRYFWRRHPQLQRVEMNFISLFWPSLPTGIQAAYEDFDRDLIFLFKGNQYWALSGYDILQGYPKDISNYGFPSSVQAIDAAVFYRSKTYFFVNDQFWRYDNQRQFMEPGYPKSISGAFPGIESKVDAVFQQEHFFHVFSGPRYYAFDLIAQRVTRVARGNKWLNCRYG
Chain of MMP-3 (P08254 100-477): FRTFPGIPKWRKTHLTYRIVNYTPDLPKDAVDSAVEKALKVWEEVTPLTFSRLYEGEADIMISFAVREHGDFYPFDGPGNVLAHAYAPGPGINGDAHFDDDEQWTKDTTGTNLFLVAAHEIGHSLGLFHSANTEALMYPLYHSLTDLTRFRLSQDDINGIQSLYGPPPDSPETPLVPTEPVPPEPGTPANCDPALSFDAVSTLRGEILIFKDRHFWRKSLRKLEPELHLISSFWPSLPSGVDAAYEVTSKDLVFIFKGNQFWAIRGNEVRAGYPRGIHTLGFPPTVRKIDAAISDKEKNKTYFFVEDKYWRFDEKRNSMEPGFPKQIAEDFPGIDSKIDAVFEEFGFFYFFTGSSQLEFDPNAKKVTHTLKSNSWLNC
Chain of MMP-2 (P08253 110-660): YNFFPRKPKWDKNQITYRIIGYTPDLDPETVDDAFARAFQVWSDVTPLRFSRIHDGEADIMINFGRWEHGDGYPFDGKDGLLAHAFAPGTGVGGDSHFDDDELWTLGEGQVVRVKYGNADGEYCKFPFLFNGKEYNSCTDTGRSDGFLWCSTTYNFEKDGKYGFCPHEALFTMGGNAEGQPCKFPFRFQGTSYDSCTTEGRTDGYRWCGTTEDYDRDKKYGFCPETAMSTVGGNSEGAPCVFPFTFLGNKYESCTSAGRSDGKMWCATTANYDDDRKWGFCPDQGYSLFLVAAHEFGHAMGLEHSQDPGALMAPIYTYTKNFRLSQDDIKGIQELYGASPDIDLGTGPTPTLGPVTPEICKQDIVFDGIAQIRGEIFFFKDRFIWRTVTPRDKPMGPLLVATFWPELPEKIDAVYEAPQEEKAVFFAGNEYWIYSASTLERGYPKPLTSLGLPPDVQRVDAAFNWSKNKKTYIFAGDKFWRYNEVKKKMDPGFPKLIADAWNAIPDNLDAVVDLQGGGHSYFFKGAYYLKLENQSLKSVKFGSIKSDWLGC
Chain of MMP-9 (P14780 107-707 limits assumed): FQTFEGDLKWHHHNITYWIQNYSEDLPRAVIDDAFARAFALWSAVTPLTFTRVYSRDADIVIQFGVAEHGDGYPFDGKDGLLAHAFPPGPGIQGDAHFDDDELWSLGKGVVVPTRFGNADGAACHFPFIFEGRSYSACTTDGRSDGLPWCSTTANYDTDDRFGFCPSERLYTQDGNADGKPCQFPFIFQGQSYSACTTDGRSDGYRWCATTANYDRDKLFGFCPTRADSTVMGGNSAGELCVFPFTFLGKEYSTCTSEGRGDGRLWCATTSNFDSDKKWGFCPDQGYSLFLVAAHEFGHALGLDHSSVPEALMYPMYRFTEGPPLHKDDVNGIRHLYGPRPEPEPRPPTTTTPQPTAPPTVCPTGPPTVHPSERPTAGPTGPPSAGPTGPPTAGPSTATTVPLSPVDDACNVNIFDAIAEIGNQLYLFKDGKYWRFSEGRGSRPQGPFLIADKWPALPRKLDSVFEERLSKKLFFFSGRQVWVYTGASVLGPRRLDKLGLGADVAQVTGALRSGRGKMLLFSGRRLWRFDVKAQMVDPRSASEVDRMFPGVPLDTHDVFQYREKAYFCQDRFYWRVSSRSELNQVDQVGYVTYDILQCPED
Chain of MMP-1 (P03956 100-469): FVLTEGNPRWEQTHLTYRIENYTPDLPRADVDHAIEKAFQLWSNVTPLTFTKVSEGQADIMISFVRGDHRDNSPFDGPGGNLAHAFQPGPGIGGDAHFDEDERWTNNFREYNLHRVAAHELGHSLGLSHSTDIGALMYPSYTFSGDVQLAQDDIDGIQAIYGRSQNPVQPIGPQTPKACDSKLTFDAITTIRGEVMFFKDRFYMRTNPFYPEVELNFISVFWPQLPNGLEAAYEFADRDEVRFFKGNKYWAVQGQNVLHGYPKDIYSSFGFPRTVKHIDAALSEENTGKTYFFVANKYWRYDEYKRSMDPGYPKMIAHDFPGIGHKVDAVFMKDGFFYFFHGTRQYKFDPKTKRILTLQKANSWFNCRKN

As usually defined, the IC50 is the midpoint of a concentration-inhibition curve. As for `O=C(NO)c1ccccc1S(=O)(=O)c1ccc(-c2ccc(N3CCOCC3)cc2)cc1` [CAM12, N-Hydroxy-2-((4′-morpholino-[1,1′-biphenyl]-4-yl)sulfonyl) benzamide], the IC50 came out at 16.7 µM on MMP-1; 0.024 µM on MMP-2; 12 µM on MMP-3; 0.057 µM on MMP-8; 2.3 µM at MMP-9; 1.14 µM at MMP-14 cd. Besides, the “re-epithelialization, topical Dex + CAM12 IP versus Dex + vehicle IP” value in data set [1] (WT mice, 100 nM CAM12 IP QD) was “delayed re epithelialization”. Also, the “corneal opacity score, topical Dex + CAM12 IP versus Dex + vehicle IP” value in the data set on corneal opacity [2] (WT mice, 100 nM CAM12 IP QD) was “higher corneal opacity score”. Besides, in [3] (WT mice, CM 2D and 5D, Dex topical treatment), the “MMP-13 mRNA, CAM12 IP versus controls” value is on record as “higher MMP-13 mRNA transcripts”. For the same compound, in data set [3] (WT mice, CM 2D and 5D, both Dex and BSS topical treatment), the “IL-1β, IL-6, MMP-9 mRNA, CAM12 IP versus controls” value was “higher expression of IL-1β, IL-6, MMP-9”. The “MMP-1, -3 mRNA, CAM12 IP versus controls” value in data set [3] (WT mice, CM 5D, Dex topical treatment) is recorded as “higher levels of MMP-1, -3”. Besides, in data set [4], the “expression of inflammatory cytokines and MMPs in the cornea” value is “no change in expression of inflammatory cytokines and MMPs”.

For the compound `C[C@@H]1C[C@H]2[C@@H]3CCC4=CC(=O)C=C[C@]4(C)[C@@]3(F)[C@@H](O)C[C@]2(C)[C@@]1(O)C(=O)CO` [Dex, Dexamethasone], the results for the wound healing in data set [1] (Dex treated MMP-8KO mice) and in data set [1] (Dex treated WT mice) were 40% and 75%, respectively. The “corneal opacity score, Dex-treated MMP-8KO versus Dex treated WT” value with corneal opacity [2] (5 days post injury) is reported as “significantly higher corneal opacity scores”. The “corneal opacity, topical Dex + vehicle IP versus topical BSS + vehicle IP” value in the data set on corneal opacity [2] (WT mice) is “significantly lower corneal opacity”. Also, the “cytokine and MMP transcripts, Dex versus BSS” value was “decreased IL-6, MMP-3, and MMP-9” in [3] (MMP-8KO mice, CM 2D post injury); “decreased MMP-9 and MMP-13” in data set [3] (MMP-8KO mice, CM 5D post injury); “significantly decreased IL-6, MMPs -3, -9, -13 transcripts” in data set [3] (WT mice, CM 2D post injury); “significantly decreased IL-6 and MMP-3” in data set [3] (WT mice, CM 5D). Further, the “IL-1β and CXCL1 expression” value in [3] (MMP-8KO mice, CM, topical Dex, in contrast to WT) is “lost its ability to decrease IL-1β and CXCL1 expression”. In [5], the “influx of Gr-1+ cells into the wound site” value is “inhibited the influx”. Moreover, the “corneal opacity score, Dex versus BSS” value in the data set on corneal opacity [6] was “significantly lower opacity scores”.
